# Assay results reported in patent US20220135622A1, “ANTIBACTERIAL PEPTIDES AND METHODS OF USE” (priority 2019, published 2022).
# “Also recorded” adds a separate entry of the source. Like-named read-outs stand apart in the source and are kept apart here.
# Columns and labels:
# [1] = test system: A. baumannii; format: cell-based, Acinetobacter baumannii; settings: Table 3, + EDTA (2 mM)
# Method in brief: (§1)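 Dilute peptide 2-fold in cation-adjusted MHB II to a top final concentration of 400-800 μM. Add bacteria to final OD600 ~0.0002 along with EDTA (0.5 mM E. coli, 0.125 mM USA300). Incubate 20 h at 37° C, then measure OD600.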
# [2] = test system: E. coli + FhuAΔC/Δ4L; format: cell-based, Escherichia coli; settings: Table 2; no EDTA
# From the text: pFhuAΔC/Δ4L was constructed by synthesizing the fhuA coding sequence lacking the N-terminal cork domain, Δ1-160, and extracellular loops L3, L4, L5, and L11 (Mohammad, et al., J Biol Chem 286, 8000-8013, (2011)).fhuAΔcΔ4L was amplified with primers N3P-105 (encoding the bla constitutive promoter, ribosome binding site, and AUG start codon from pUC19 (New England BioLabs) and N3P-107, and cloning into pACYC184 with BamHI and HindIII (New England BioLabs).
# (§2) Bacterial growth conditions. LB or Mueller Hinton II cation-adjusted broth (MHB II, BBL 212322) was prepared according to manufacturer's instructions and supplemented with arabinose at 0.02% for overnight growth or at indicated concentrations in the description of the figures. Bacterial cultures were grown at 37° C. When appropriate, media was supplemented with kanamycin (50 μg/mL), carbenicillin (50 μg/mL), chloramphenicol (12.5 or 25 μg/mL), hygromycin (200 μg/mL), and/or gentamicin (10 μg/mL).
# Peptide sensitivity and MIC assays. […] After 4 h, an equal volume (10 μL) of BacTiter-Glo™ (Promega) was added to each well and luminescence was read after 5 min on an EnVision plate reader (PerkinElmer). […] Plates were incubated at 37° C. for 20 h before measuring OD600 with an EnVision plate reader.
# [3] = test system: E. coli ΔwaaD MCR-1; assay: MIC assay, E. coli ΔwaaD MCR-1; format: cell-based, Escherichia coli
# Procedure: as §2
# (§3) Peptide sensitivity and MIC assays. Lyophilized peptides (Smartox Biotechnology, CPC Scientific. ABclonal) were solubilized to 10 mM in Tris buffer, pH 8, prior to making a 2-fold dilution series in MHBII cation adjusted broth with highest final assay concentration of 400-800 μM. Bacteria were grown to log phase and added to final OD600˜0.001. The final EDTA concentration was 0.5 mM for E. coli strains and 0.125 mM for USA300. The final volume of 10 μL/well in a 384 well black, clear bottom plate (Corning) was spun <1 min at <250×g and then incubated at 37° C. After 4 h, an equal volume (10 μL) of BacTiter-Glo™ (Promega) was added to each well and luminescence was read after 5 min on an EnVision plate reader (PerkinElmer). To measure the minimal inhibitory concentrations (MICs), bacteria from fresh overnight plates or log phase cultures were diluted with or without EDTA and peptides as described above to final OD600˜0.0002. Plates were incubated at 37° C. for 20 h before measuring OD600 with an EnVision plate reader.
# [4] = test system: E. cloacae; assay: MIC assay, E. cloacae; format: cell-based, Enterobacter cloacae; settings: Table 3; + EDTA (2 mM)
# Procedure: as §2
# as §3, with “To measure the minimal inhibitory concentrations (MICs), bacteria from fresh overnight plates or log phase cultures were diluted with or without EDTA and peptides as described above to final OD600˜0.0002.” left out
# [5] = test system: E. coli imp4213; assay: MIC assay, E. coli imp4213; format: cell-based, Escherichia coli; settings: for MIC E. coli imp4213: Table 7
# Method in brief: as §1
# [6] = test system: E. coli BW25113; format: cell-based, Escherichia coli; settings: for MIC: Table 2; for MIC E coli BW25113 + EDTA / MIC E. coli BW25113: Table 7
# Method in brief: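 Growth inhibition: log-phase cells (OD600 ~0.001), peptides in 2-fold series up to 400–800 μM in MHB II, EDTA 0.5 mM (E. coli) or 0.125 mM (USA300), 4 h at 37 °C, ATP luminescence readout. MICs: inoculum at OD600 ~0.0002, with or without EDTA, 20 h at 37 °C, OD600 endpoint.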
# [7] = test system: P. aeruginosa; format: cell-based, Pseudomonas aeruginosa; settings: Table 3; + EDTA (2 mM)
# Method in brief: as §1
# [8] = Biolayer interferometry: captured biotinylated LAB peptides binding to LPS (KDO2-lipid A); settings: for Kd: LPS (KDO2-lipid A), biotinylated peptide on SA biosensor, 25° C., estimated from equilibrium responses; for selective binding to LPS over PLs: versus the major PLs found in E. coli; for binding to LPS: interferometry, above background
# Procedure: (§4) Biolayer interferometry. Phospholipid (Avanti polar lipids) and KDO2-lipid A (US Biological Life Sciences) stock solutions were prepared by resuspension into 25 mM Tris pH 8, 100 mM NaCl, 0.05% LMNG buffer and solubilized overnight at 4° C. Lipid stocks were diluted prior to experiments into 25 mM Tris pH 8, 100 mM NaCl, 0.5 mg/mL BSA, 0.05% LMNG. All assays were performed at 25° C. in 25 mM Tris pH 8, 100 mM NaCl, 0.5 mg/mL BSA, 0.05% LMNG. Biotinylated-LAB peptides were loaded onto SA biosensors to a response of approximately 0.5 nm. Binding to phospholipids and KDO2-lipid A was measured at concentrations of 150, 100, 50, 25, and 10 μM with 300s association and dissociation steps. Assays were performed in triplicate on an Octet Red384 (ForteBio) and buffer and lipid signals were subtracted by using a biotin-blocked reference streptavidin (SA) biosensor. Dissociation constants for LABWT and LABWT+, interactions with KDO2-lipidA were estimated by plotting response values at equilibrium as a function of concentration and fit to a global specific binding with Hill slope model in Prism (Graphpad Software).
# Based on the intriguing chemical characteristics of the LPS-PbgA interface, the possibility that a linear peptide derived from PbgA might selectively bind to LPS in vitro was considered. A peptide encompassing the lipid A-binding (LAB)-motif (209SYPMTARRFLEKHGLLD225; SEQ ID NO: 67) with an additional Gly-Ser-linker and biotin modification was generated and used in an interferometry-based assay. […] Two peptides intended to destabilize essential lipid A binding determinants were tested as controls.
# [9] = test system: K. pneumoniae; format: cell-based, Klebsiella pneumoniae; settings: Table 3; + EDTA (2 mM)
# Method in brief: as §1
# [10] = test system: E. coli ΔwaaD pmrB^D149Y; assay: MIC assay, E. coli ΔwaaD pmrB^D149Y; format: cell-based, Escherichia coli; settings: Table 4; + EDTA; PMX-resistant
# Procedure: as §2
# as §3, with “To measure the minimal inhibitory concentrations (MICs), bacteria from fresh overnight plates or log phase cultures were diluted with or without EDTA and peptides as described above to final OD600˜0.0002.” left out
# [11] = test system: S. aureus USA300; assay: MIC assay, S. aureus USA300; format: cell-based, Staphylococcus aureus; settings: for MIC S. aureus USA300: Table 7
# Procedure: as §2, §3
# [12] = test system: wild-type E. coli strain; assay: Bacterial growth inhibition, wild-type E. coli strain; format: cell-based, Escherichia coli
# Procedure: as §2
# as §3, with “To measure the minimal inhibitory concentrations (MICs), bacteria from fresh overnight plates or log phase cultures were diluted with or without EDTA and peptides as described above to final OD600˜0.0002.” left out
# [13] = test system: E. coli ΔwaaD; assay: MIC assay, E. coli ΔwaaD; format: cell-based, Escherichia coli; settings: for MIC E. coli ΔwaaD + EDTA: Table 7
# Procedure: as §2, §3
# [14] = test system: E. coli imp4213; assay: Bacterial growth inhibition, E. coli imp4213; format: cell-based, Escherichia coli
# Procedure: as §2
# as §3, with “To measure the minimal inhibitory concentrations (MICs), bacteria from fresh overnight plates or log phase cultures were diluted with or without EDTA and peptides as described above to final OD600˜0.0002.” left out
# [15] = test system: E. coli+FhuAΔC/Δ4L; assay: Bacterial growth inhibition, E. coli+FhuAΔC/Δ4L; format: cell-based, Escherichia coli
# Procedure: as §2
# as §3, with “To measure the minimal inhibitory concentrations (MICs), bacteria from fresh overnight plates or log phase cultures were diluted with or without EDTA and peptides as described above to final OD600˜0.0002.” left out
# [16] = test system: E. coli mcr-1; format: cell-based, Escherichia coli; settings: Table 6
# Method in brief: as §1
# [17] = test system: E. coli; assay: Cell growth inhibition assay with or without EDTA; format: cell-based, Escherichia coli; settings: irrespective of the presence or absence of EDTA (0.5 mM)
# Procedure: as §3
# It was reasoned that the relatively large molecular weight (>2 kDa) and limited α-helical propensity of the linear LABWT peptide (SEQ ID NO: 1) might limit its access to LPS in the bacterial OM. […]
# [18] = Biolayer interferometry: captured biotinylated LAB peptides binding to phospholipids; design: species or system E. coli; settings: above background
# Procedure: as §4
# Based on the intriguing chemical characteristics of the LPS-PbgA interface, the possibility that a linear peptide derived from PbgA might selectively bind to LPS in vitro was considered. […]
# [19] = test system: E. coli ΔwaaD + vect.; assay: MIC assay, E. coli ΔwaaD + vect.; format: cell-based, Escherichia coli; settings: Table 7
# Procedure: as §2, §3
substance,measurement,setting,value
"Ac-SYPMTARRFLEKWGLLR-NH2 [SEQ ID NO: 68, SYPMTARRFLEKWGLLR]",MIC,[1],400 µM
same,MIC,[1]; listed as LABWT+,200 µM
same,MIC,[2],50 µM
same,MIC,"[3]; Table 4, + EDTA, PMX-resistant",100 µM
same,MIC,[4],100 µM
same,MIC,"[5]; Table 2, no EDTA",25 µM
same,MIC,[6]; + 0.5 mM EDTA,200 µM
same,MIC,"[6]; wild-type strain, no EDTA",>800 µM
same,MIC,[7],400 µM
same,improved affinity towards LPS,[8]; LABWT+ relative to LABWT,~1.5 fold
same,Kd,[8],~55 µM
same,selective binding to LPS over PLs,[8],maintaining selectivity over PL binding
same,MIC,[9],>400 µM
same,MIC,[10],100 µM
same,MIC,"[11]; Table 2, Gram-positive wild-type strain",>800 µM
same,growth inhibition,[12],failed to inhibit the growth
same,MIC,"[13]; Table 2, no EDTA",400 µM
same,MIC,"[13]; Table 4, + EDTA",100 µM
GSSYPMTARRFLEKHGLLD [SEQ ID NO: 1],growth inhibition,[14],significantly impacted the growth
same,growth inhibition,[15],significantly impacted the growth
same,Kd,[8],~75 µM
same,selective binding to LPS over PLs,[8],bound LPS selectively over the major PLs
same,growth inhibition,[12],failed to inhibit the growth
Ac-GSSYPMTARRFLEKWGLLD-NH2 [compound 6],MIC E. coli imp4213,[5],400 µM
same,MIC E coli BW25113 + EDTA,[6],800 µM
same,MIC E. coli BW25113,[6]; no EDTA,>800 µM
same,MIC S. aureus USA300,[11],>800 µM
same,MIC E. coli ΔwaaD + EDTA,[13]; + EDTA,>800 µM
Polymyxin B [reference compound],Polymyxin B MIC,"[6]; Table 6, E. coli K-12 wild-type parent BW25113",0.2 µM
same,Polymyxin B MIC,[16],12.5 µM
GSSYPMTARRFLE (Ac-GSSYPMTARRFLE-NH2) [SEQ ID NO: 2],effect on bacterial cell growth,[17],showed no effect on bacterial cell growth
same,binding to LPS,[8]; listed as LABΔα7,Neither a peptide lacking the α7 helix (LABΔα7; SEQ ID NO: 2) nor a peptide containing the T213D mutation equivalent (LABT213D; SEQ ID NO: 3) showed detectable binding to LPS or PLs above background; also recorded: failed to bind LPS in vitro
same,binding to PLs,[18],Neither a peptide lacking the α7 helix (LABΔα7; SEQ ID NO: 2) nor a peptide containing the T213D mutation equivalent (LABT213D; SEQ ID NO: 3) showed detectable binding to LPS or PLs above background
GSSYPMDARRFLEKHGLLD (Ac-GSSYPMDARRFLEKHGLLD-NH2) [SEQ ID NO: 3],effect on bacterial cell growth,[17],showed no effect on bacterial cell growth
same,binding to LPS,[8]; listed as LABT213D,Neither a peptide lacking the α7 helix (LABΔα7; SEQ ID NO: 2) nor a peptide containing the T213D mutation equivalent (LABT213D; SEQ ID NO: 3) showed detectable binding to LPS or PLs above background; also recorded: failed to bind LPS in vitro
same,binding to PLs,[18],Neither a peptide lacking the α7 helix (LABΔα7; SEQ ID NO: 2) nor a peptide containing the T213D mutation equivalent (LABT213D; SEQ ID NO: 3) showed detectable binding to LPS or PLs above background
Ac-YPMTARRFLEKHGLLD-NH2 [compound 10],MIC E. coli imp4213,[5],800 µM
same,MIC E coli BW25113 + EDTA,[6],800 µM
same,MIC E. coli BW25113,[6]; no EDTA,>800 µM
same,MIC S. aureus USA300,[11],>800 µM
same,MIC E. coli ΔwaaD + EDTA,[13]; + EDTA,>800 µM
Ac-SSYPMTARRFLEKHGLLD-NH2 [compound 9],MIC E. coli imp4213,[5],800 µM
same,MIC E coli BW25113 + EDTA,[6],>800 µM
same,MIC E. coli BW25113,[6]; no EDTA,>800 µM
same,MIC S. aureus USA300,[11],>800 µM
same,MIC E. coli ΔwaaD + EDTA,[13]; + EDTA,>800 µM
Ac-GSSYPMTARRFLEKHGLLR-NH2 [compound 13],MIC E coli ΔwaaD − MCR1,[3]; Table 7,200 µM
same,MIC E. coli imp4213,[5],200 µM
same,MIC E coli BW25113 + EDTA,[6],800 µM
same,MIC E. coli BW25113,[6]; no EDTA,>800 µM
same,MIC E. coli ΔwaaD + vect.,[19],800 µM
same,MIC S. aureus USA300,[11],>800 µM
same,MIC E. coli ΔwaaD + EDTA,[13]; + EDTA,200 µM
